Results taken from patent publication US20120142771A1, “BIPHENYLACETAMIDE DERIVATIVE” (Dainippon Sumitomo Pharma Co., Ltd., priority 2008, published 2012).

How the values were obtained:
[1] = tested on: subcutaneously pentetrazol-injected model (scPTZ); assay: Subcutaneously pentetrazol-injected model (scPTZ) test; assay type: in vivo, mice; settings: pentetrazol 85 mg/kg s.c. after 1 hour; for responders at 50 mg/kg / responders at 100 mg/kg: Mus musculus, po, 1 h, read-out: scPTZ (positive number/tested number) (converted); for responders at 50 mg/kg / responders at 100 mg/kg / scPTZ (positive number/tested number): Slc: ddY male mice, 3 per group, observed 30 minutes for clonic convulsion; for anticonvulsant action in subcutaneously pentetrazol-injected model (scPTZ) test: mice, oral 50 or 100 mg/kg
Procedure, shortened: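 Male Slc:ddY mice (20-30 g, 3 per group) dosed orally at 50 or 100 mg/kg; pentetrazol 85 mg/kg given subcutaneously 1 h later. Controls received 0.5% tragacanth or 0.5% methylcellulose vehicle.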

Slc: ddY male mice = assay: Rotarod performance test (motor disturbance); assay type: in vivo; settings: 1 hour after administration, 10 mice
Protocol: Test 5: Rotarod Performance Test
Test 5 evaluates whether motor disturbance is caused by medicaments. On the day before the test, Slc: ddY male mice (body weight 20-30 g) were trained so that they could walk on a rotarod apparatus for 3 minutes without falling, wherein a cylinder of 4 cm diameter is rotated with a speed of 13 rotations per minute. Test compounds were orally administered to a group consisting of 10 mice. […] When the mice fell down within 100 seconds because of disturbed motor coordination, such mice were counted as positive. To the control mice, 0.5% methylcellulose solution was administered.

[2] = tested on: 6 Hz psychomotor seizure model; assay: 6 Hz psychomotor seizure model; assay type: in vivo, mice; settings: mice; for ED50: Mus musculus, 6 Hz psychomotor seizure model, read-out: ED50; for ED50 / 6 Hz (Positive number/tested number): oral; for 6 Hz (Positive number/tested number): dose 100 mg/kg, 30 minutes or 1 hour after administration; for efficacy in 6 Hz psychomotor seizure model: oral administration at a dose of 100 mg/kg
Protocol: Test 4: Test of 6 Hz Psychomotor Seizure Model
Similar to Tests 1 and 2, Test 4 evaluates the anticonvulsant action of medicaments. However, unlike Tests 1 and 2, the animal model used herein represents clinical phenotypes of seizures resistant to existing antiepileptic drugs. […] After 30 minutes or an hour of administration, their corneas were electrically stimulated (6 Hz, 32 mA, 3 seconds) to induce symptoms of myoclonus in their forelimbs, Straub tail, and immobility. […] To the control mice, 0.5% tragacanth solution, 0.5% methylcellulose solution, or olive oil was administered.

[3] = tested on: maximum electroshock seizure (MES) model; assay: Maximum electroshock seizure (MES) model test; assay type: in vivo, mice; settings: for responders at 50 mg/kg / responders at 100 mg/kg: Mus musculus, po, 1 h, read-out: MES (positive number/tested number) (converted); for responders at 50 mg/kg / responders at 100 mg/kg / MES (positive number/tested number): Slc: ddY male mice, 3 per group, electrical stimulation 1 hour after administration, inhibition of hind limb extension; for anticonvulsant action in maximum electroshock seizure (MES) model test: mice, oral 50 or 100 mg/kg, 1 hour after administration
Procedure, shortened: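 Male Slc: ddY mice (3 per group, 20-30 g) received compound orally at 50 or 100 mg/kg; controls got 0.5% tragacanth or 0.5% methylcellulose. One hour post-dose, corneal stimulation (60 Hz, 25 mA, 0.2 s) induced tonic hind-limb extensor convulsion.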

amygdala-kindling model = assay: Amygdala-kindling model in rats; assay type: in vivo
Text: Test 3: Test with Amygdala-Kindling Model in Rats
Test 3 evaluates the anticonvulsant action of medicaments in rats, besides mice in Tests 1 and 2. Animal model (kindling model) used herein is a very similar model to clinical findings of focal onset seizures (i.e. simple partial seizure, complex partial seizure, and secondarily generalized tonic-clonic seizure), which is known to provide excellent clinical prediction. A chronic electrode was implanted in the cortex (frontal and posterior regions) and the amygdala of Slc: Wistar male rats (body weight 250-300 g). One week after the above operation, electrical stimulation (50 Hz, 400 μA, 1 second) into the amygdala was conducted once a day for about two weeks. The stimulation condition was determined according to the method of Loscher et al. [Epilepsy Res., 40: 63-77 (2000)]. The stimulation was continued until the seizure stage 5 in the seizure severity stages according to the method of Racine et al. [Motor seizure. Electroenceph. Clin. Neurophysiol., 32:281-294 (1972)] was observed 10 consecutive times. Kindling model was thus completed. Then, test compounds (100 mg/kg) were orally administered to this model. After an hour of administration, the rats were evaluated based on three parameters, i.e., a threshold stimulus current to induce seizure (i.e. seizure threshold), the duration of afterdischrage observed on an electroencephalogram, and seizure severity (stage scores 1-5). The results of the seizure threshold and the afterdischarge duration were shown as average percentage of change from the pretreatment value obtained before the administration of each test compound. To the control rats, 0.5% tragacanth solution was administered. Minus means decreased or shortened.

SMILES | responders at 50 mg/kg ([1]; 50 mg/kg oral) [%] | responders at 100 mg/kg ([1]; 100 mg/kg oral) [%] | anticonvulsant action in subcutaneously pentetrazol-injected model (scPTZ) test [1] | 6 Hz (Positive number/tested number) [2] | responders at 50 mg/kg ([3]; 50 mg/kg oral) [%] | responders at 100 mg/kg ([3]; 100 mg/kg oral) [%] | anticonvulsant action in maximum electroshock seizure (MES) model test [3] | further results
NC(=O)Cc1ccccc1-c1cc(Cl)cc(Cl)c1 [Example 71, 2-(3′,5′-dichlorobiphenyl-2-yl)acetamide] | 66.7 | 66.7 | anticonvulsant action was observed | 7/10/100 | 66.7 | 100 | anticonvulsant action was observed | The rate of mice which fell within 100 seconds (%) (Slc: ddY male mice; 100 mg/kg oral): 0%; The rate of mice which fell within 100 seconds (%) (Slc: ddY male mice; 200 mg/kg oral): 20%; The rate of mice which fell within 100 seconds (%) (Slc: ddY male mice; 300 mg/kg oral): 30%; The rate of mice which fell within 100 seconds (%) (Slc: ddY male mice; 400 mg/kg oral): 70%; ED50 [2]: 82.8 mg/kg
NC(=O)Cc1cc(F)ccc1-c1ccccc1F [Example 46, 2-(2′,4-difluorobiphenyl-2-yl)acetamide] | 0 | 100 |  | 5/10/100 | 66.7 | 100 |  | The rate of mice which fell within 100 seconds (%) (Slc: ddY male mice; 100 mg/kg oral): 20%; The rate of mice which fell within 100 seconds (%) (Slc: ddY male mice; 200 mg/kg oral): 20%; The rate of mice which fell within 100 seconds (%) (Slc: ddY male mice; 300 mg/kg oral): 60%; The rate of mice which fell within 100 seconds (%) (Slc: ddY male mice; 400 mg/kg oral): 90%; ED50 [2]: 120 mg/kg
NC(=O)C(O)c1ccccc1-c1cccc(F)c1 (single isomer, unassigned) [Example 212, 2-(3′-Fluorobiphenyl-2-yl)-2-hydroxyacetamide] |  |  | anticonvulsant action was observed | 1/5/100 |  |  | anticonvulsant action was observed | scPTZ (positive number/tested number) ([1]; 50 mg/kg oral): 2/3; scPTZ (positive number/tested number) ([1]; 100 mg/kg oral): 2/3; MES (positive number/tested number) ([3]; 50 mg/kg oral): 3/3; MES (positive number/tested number) ([3]; 100 mg/kg oral): 3/3
NC(=O)Cc1ccccc1-c1cccc(F)c1 [Example 25, 2-(3′-fluorobiphenyl-2-yl)acetamide] | 100 | 100 | anticonvulsant action was observed | 10/10/100 | 100 | 100 | anticonvulsant action was observed | The rate of mice which fell within 100 seconds (%) (Slc: ddY male mice; 100 mg/kg oral): 0%; The rate of mice which fell within 100 seconds (%) (Slc: ddY male mice; 200 mg/kg oral): 10%; The rate of mice which fell within 100 seconds (%) (Slc: ddY male mice; 300 mg/kg oral): 60%; The rate of mice which fell within 100 seconds (%) (Slc: ddY male mice; 400 mg/kg oral): 90%; ED50 [2]: 61.9 mg/kg; efficacy in 6 Hz psychomotor seizure model [2]: potent efficacy; Seizure threshold (uA) Δ % change (amygdala-kindling model; 100 mg/kg oral, 1 hour after administration, average percentage of change from pretreatment value): 69.4%; Afterdischarge duration (sec) Δ % change (amygdala-kindling model; 100 mg/kg oral, 1 hour after administration, change from pretreatment value, minus means shortened): −100%; Seizure severity score (amygdala-kindling model; 100 mg/kg oral, 1 hour after administration, stage scores 1-5): 0.0; efficacy against the amygdala-kindling model (amygdala-kindling model; oral administration at a dose of 100 mg/kg): potent efficacy
NC(=O)Cc1ccc(F)cc1-c1ccccc1 [Example 39, 2-(5-fluorobiphenyl-2-yl)acetamide] | 33.3 | 66.7 |  | 1/5/100 | 100 | 100 |  | 
NC(=O)Cc1ccccc1-c1cc(Cl)ccc1C(F)(F)F [Example 91, 2-[5′-chloro-2′-(trifluoromethyl)biphenyl-2-yl]acetamide] | 66.7 | 66.7 | anticonvulsant action was observed | 5/5/100 | 100 | 100 | anticonvulsant action was observed | efficacy in 6 Hz psychomotor seizure model [2]: potent efficacy
NC(=O)Cc1ccc(F)cc1-c1ccccc1F [Example 41, 2-(2′,5-difluorobiphenyl-2-yl)acetamide] | 66.7 | 66.7 | anticonvulsant action was observed | 4/5/100 | 100 | 100 | anticonvulsant action was observed | 
NC(=O)Cc1ccccc1-c1cccc(Br)c1 [Example 52, 2-(3′-bromobiphenyl-2-yl)acetamide] | 33.3 | 66.7 |  | 1/5/100 | 66.7 | 100 |  | 
NC(=O)Cc1ccccc1-c1cc(OC(F)(F)F)ccc1F [Example 93, 2-[2′-fluoro-5′-(trifluoromethoxy)biphenyl-2-yl]acetamide] | 33.3 | 100 |  | 2/5/100 | 100 | 100 |  | 
NC(=O)Cc1ccccc1-c1cccc(F)c1Cl [Example 86, 2-(2′-chloro-3′-fluorobiphenyl-2-yl)acetamide] | 33.3 | 66.7 |  | 2/5/100 | 100 | 66.7 |  | 
NC(=O)Cc1ccccc1-c1cc(F)ccc1Cl [Example 88, 2-(2′-chloro-5′-fluorobiphenyl-2-yl)acetamide] | 66.7 | 100 | anticonvulsant action was observed | 3/5/100 | 66.7 | 100 | anticonvulsant action was observed | 
